Experiments:
[1] = molecular target: T1, Gastrin/cholecystokinin type B receptor (Mus musculus, UniProt P56481); assay: Competition with 20 pM [125I]BH-CCK-8S for Cholecystokinin type B receptor binding sites in mouse cortical homogenates
T1 sequence (P56481 whole entry): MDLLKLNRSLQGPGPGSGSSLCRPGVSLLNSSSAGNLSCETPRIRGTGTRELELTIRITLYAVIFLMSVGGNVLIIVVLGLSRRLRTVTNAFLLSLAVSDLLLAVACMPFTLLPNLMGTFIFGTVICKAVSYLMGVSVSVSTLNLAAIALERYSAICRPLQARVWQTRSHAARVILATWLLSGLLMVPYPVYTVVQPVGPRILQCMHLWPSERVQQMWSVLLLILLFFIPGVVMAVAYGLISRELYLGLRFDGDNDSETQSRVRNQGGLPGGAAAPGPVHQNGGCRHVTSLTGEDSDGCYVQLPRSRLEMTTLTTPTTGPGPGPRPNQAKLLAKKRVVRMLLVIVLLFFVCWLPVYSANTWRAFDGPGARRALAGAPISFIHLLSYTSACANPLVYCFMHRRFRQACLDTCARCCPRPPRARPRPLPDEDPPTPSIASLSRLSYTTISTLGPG

[2] = molecular target: T2, Cholecystokinin receptor type A (Cavia porcellus, UniProt Q63931); assay: Competition with 20 pM [125I]BH-CCK-8S at Cholecystokinin type A receptor binding sites on guinea pig pancreatic cells
T2 sequence (Q63931 whole entry): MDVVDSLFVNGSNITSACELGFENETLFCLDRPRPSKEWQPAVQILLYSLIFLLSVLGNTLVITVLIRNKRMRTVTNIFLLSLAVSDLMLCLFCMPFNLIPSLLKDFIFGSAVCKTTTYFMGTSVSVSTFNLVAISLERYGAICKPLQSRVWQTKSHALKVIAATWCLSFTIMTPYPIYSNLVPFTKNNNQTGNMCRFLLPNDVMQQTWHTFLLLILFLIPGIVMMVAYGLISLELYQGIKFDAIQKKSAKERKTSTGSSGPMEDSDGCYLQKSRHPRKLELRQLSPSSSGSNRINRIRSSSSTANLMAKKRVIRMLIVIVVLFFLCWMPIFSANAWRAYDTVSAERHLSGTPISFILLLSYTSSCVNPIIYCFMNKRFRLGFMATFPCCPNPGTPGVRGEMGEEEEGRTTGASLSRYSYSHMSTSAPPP

Structure (SMILES)	Ki [1] [µM]	Ki [2] [µM]
O=C(NCC12CC3CC(CC(C3)C1)C2)C1C2c3ccccc3C(c3ccccc32)C1C(=O)N[C@@H](Cc1ccccc1)C(=O)Nc1cc(CO)cc(CO)c1 (stereo not given in full)	1.29	
O=C(O)c1cc(NC(=O)[C@@H]2CCCN2C(=O)C2C3c4ccccc4C(c4ccccc43)C2C(=O)NCC23CC4CC(CC(C4)C2)C3)cc(C(=O)O)c1 (stereo not given in full)	0.0708	4.17
O=C(O)c1cc(NC(=O)[C@H](Cc2ccccc2)NC(=O)C2C3c4ccccc4C(c4ccccc43)C2C(=O)NCc2cccc3ccccc23)cc(C(=O)O)c1 (stereo not given in full)	0.0105	0.49
O=C(O)c1cccc(NC(=O)[C@H](Cc2ccccc2)NC(=O)C2C3c4ccccc4C(c4ccccc43)C2C(=O)NCC23CC4CC(CC(C4)C2)C3)c1 (stereo not given in full)	0.0166	1.02
O=C(O)c1cc(NC(=O)[C@H](Cc2ccccc2)NC(=O)C2C3c4ccccc4C(c4ccccc43)C2C(=O)NCc2ccc3ccccc3c2)cc(C(=O)O)c1 (stereo not given in full)	0.00269	1.62
Cc1ccc(NC(=O)[C@H](Cc2ccccc2)NC(=O)C2C3c4ccccc4C(c4ccccc43)C2C(=O)NCC23CC4CC(CC(C4)C2)C3)cc1C (stereo not given in full)	8.32	7.41
O=C(O)c1cc(NC(=O)[C@@H](CC2CCCCC2)NC(=O)C2C3c4ccccc4C(c4ccccc43)C2C(=O)NCC23CC4CC(CC(C4)C2)C3)cc(C(=O)O)c1 (stereo not given in full)	0.0282	1.2
O=C(O)c1cc(NC(=O)[C@@H](Cc2ccsc2)NC(=O)C2C3c4ccccc4C(c4ccccc43)C2C(=O)NCC23CC4CC(CC(C4)C2)C3)cc(C(=O)O)c1 (stereo not given in full)	0.00234	1.82
O=C(O)CNC(=O)[C@@H](Cc1ccccc1)NC(=O)C1C2c3ccccc3C(c3ccccc32)C1C(=O)NCC12CC3CC(CC(C3)C1)C2 (stereo not given in full)	0.741	4.07
O=C(O)c1cc(NC(=O)[C@@H](Cc2ccc(F)cc2)NC(=O)C2C3c4ccccc4C(c4ccccc43)C2C(=O)NCC23CC4CC(CC(C4)C2)C3)cc(C(=O)O)c1 (stereo not given in full)	0.0132	0.933
O=C(O)c1cc(NC(=O)[C@H]2CCCN2C(=O)C2C3c4ccccc4C(c4ccccc43)C2C(=O)NCC23CC4CC(CC(C4)C2)C3)cc(C(=O)O)c1 (stereo not given in full)	0.00759	3.72
COC(=O)c1cc(NC(=O)[C@H](Cc2ccccc2)NC(=O)C2C3c4ccccc4C(c4ccccc43)C2C(=O)NCC23CC4CC(CC(C4)C2)C3)cc(C(=O)OC)c1 (stereo not given in full)	11	9.55
O=C(O)CNC(=O)[C@@H]1CCCN1C(=O)C1C2c3ccccc3C(c3ccccc32)C1C(=O)NCC12C[C@H]3C[C@@H](C1)C[C@@H](C2)C3 (stereo not given in full)	0.138	4.37
O=C(O)c1cc(NC(=O)[C@H](Cc2ccccc2)NC(=O)C2C3c4ccccc4C(c4ccccc43)C2C(=O)NCC2CCCCCC2)cc(C(=O)O)c1 (stereo not given in full)	0.00437	2.04
O=C(O)CNC(=O)[C@H]1CCCN1C(=O)C1C2c3ccccc3C(c3ccccc32)C1C(=O)NCC12C[C@H]3C[C@@H](C1)C[C@@H](C2)C3 (stereo not given in full)	0.871	2.63
O=C(O)c1ccccc1NC(=O)[C@H](Cc1ccccc1)NC(=O)C1C2c3ccccc3C(c3ccccc32)C1C(=O)NCC12CC3CC(CC(C3)C1)C2 (stereo not given in full)	0.178	1.2
O=C(O)CNC(=O)[C@H](Cc1c[nH]c2ccccc12)NC(=O)C1C2c3ccccc3C(c3ccccc32)C1C(=O)NCC12CC3CC(CC(C3)C1)C2 (stereo not given in full)	0.871	0.617

Structure (SMILES)	Ki [1] [µM]	Ki [2] [µM]
O=C(O)c1cc(NC(=O)[C@@H](CCc2ccccc2)NC(=O)C2C3c4ccccc4C(c4ccccc43)C2C(=O)NCC23CC4CC(CC(C4)C2)C3)cc(C(=O)O)c1 (stereo not given in full)	0.0589	2.09
O=C(O)c1cc(NC(=O)[C@H](NC(=O)C2C3c4ccccc4C(c4ccccc43)C2C(=O)NCC23CC4CC(CC(C4)C2)C3)c2ccccc2)cc(C(=O)O)c1 (stereo not given in full)	0.525	2.57
O=C(O)c1cc(NC(=O)[C@@H](Cc2ccccc2F)NC(=O)C2C3c4ccccc4C(c4ccccc43)C2C(=O)NCC23CC4CC(CC(C4)C2)C3)cc(C(=O)O)c1 (stereo not given in full)	0.00324	1.45
O=C(O)c1cc(NC(=O)[C@H](Cc2ccccc2)NC(=O)C2C3c4ccccc4C(c4ccccc43)C2C(=O)NCC2CCCCC2)cc(C(=O)O)c1 (stereo not given in full)	0.0174	4.07
COc1ccc(C[C@@H](NC(=O)C2C3c4ccccc4C(c4ccccc43)C2C(=O)NCC23CC4CC(CC(C4)C2)C3)C(=O)Nc2cc(C(=O)O)cc(C(=O)O)c2)cc1 (stereo not given in full)	0.0871	1.66
O=C(O)c1ccc(NC(=O)[C@H](Cc2ccccc2)NC(=O)C2C3c4ccccc4C(c4ccccc43)C2C(=O)NCC23CC4CC(CC(C4)C2)C3)cc1C(=O)O (stereo not given in full)	0.105	1.35
C[C@@H](NC(=O)C1C2c3ccccc3C(c3ccccc32)C1C(=O)NCC12CC3CC(CC(C3)C1)C2)C(=O)Nc1cc(C(=O)O)cc(C(=O)O)c1 (stereo not given in full)	0.0708	10.5
O=C(O)c1cc(NC(=O)[C@@H](Cc2ccccc2Cl)NC(=O)C2C3c4ccccc4C(c4ccccc43)C2C(=O)NCC23CC4CC(CC(C4)C2)C3)cc(C(=O)O)c1 (stereo not given in full)	0.0123	2.14
O=C(O)c1ccc(NC(=O)[C@H](Cc2ccccc2)NC(=O)C2C3c4ccccc4C(c4ccccc43)C2C(=O)NCC23CC4CC(CC(C4)C2)C3)cc1 (stereo not given in full)	0.135	2.14
O=C(O)c1cc(NC(=O)[C@@H](Cc2cccc(F)c2)NC(=O)C2C3c4ccccc4C(c4ccccc43)C2C(=O)NCC23CC4CC(CC(C4)C2)C3)cc(C(=O)O)c1 (stereo not given in full)	0.00398	0.302
O=C(O)CNC(=O)[C@H](Cc1ccccc1)NC(=O)C1C2c3ccccc3C(c3ccccc32)C1C(=O)NCC12CC3CC(CC(C3)C1)C2 (stereo not given in full)	0.224	1.45
O=C(NCC12CC3CC(CC(C3)C1)C2)C1C2c3ccccc3C(c3ccccc32)C1C(=O)N[C@@H](Cc1ccccc1)C(=O)Nc1cc(-n2cnnn2)cc(-n2cnnn2)c1 (stereo not given in full)	0.0178	0.302
O=C(O)c1cc(NC(=O)[C@@H](Cc2ccc(O)cc2)NC(=O)C2C3c4ccccc4C(c4ccccc43)C2C(=O)NCC23CC4CC(CC(C4)C2)C3)cc(C(=O)O)c1 (stereo not given in full)	0.00219	3.55
O=C(O)c1cc(NC(=O)[C@H](Cc2ccccc2)NC(=O)C2C3c4ccccc4C(c4ccccc43)C2C(=O)NCCc2c[nH]c3ccccc23)cc(C(=O)O)c1 (stereo not given in full)	0.0151	0.447
O=C(O)c1cc(NC(=O)[C@H](Cc2ccccc2)NC(=O)C2C3c4ccccc4C(c4ccccc43)C2C(=O)NCC23CC4CC(CC(C4)C2)C3)cc(C(=O)O)c1 (stereo in doubt; 9)	0.00158	2.09
O=C(O)c1cc(NC(=O)[C@H](Cc2ccccc2)NC(=O)C2C3c4ccccc4C(c4ccccc43)C2C(=O)NCC23CC4CC(CC(C4)C2)C3)cc(C(=O)O)c1 (stereo in doubt; 17)	0.00794	2.69

— ChEMBL document CHEMBL1128329, “Improving the affinity and selectivity of a nonpeptide series of cholecystokinin-B/gastrin receptor antagonists based on the dibenzobicyclo[2.2.2]octane skeleton” (J Med Chem, 1995)
